{
  "source": "patent US12378320B2",
  "about": "“Methods for treating pancreatitis” (Cold Spring Harbor Laboratory, priority 2018, dated 2025)",
  "key": {"[1]": {"system": "C57Bl/6J mice", "experiment": "Cerulein model of acute pancreatitis, immune cell types by flow cytometry", "format": "in vivo, mouse", "conditions": "for immune cell type representation in the spleen or lymph nodes / immune cells in the pancreas following induction of pancreatitis: flow cytometry", "method": "(§1) KPC mice (Kras^+/LSL-G12D; Trp53^+/R172H; Pdx1-Cre) have been described previously (Hingorani S R, et al., Cancer Cell. 2003; 4(6):437-50; Hingorani S R, et al., Cancer Cell. 2005; 7(5):469-83) and were backcrossed onto the C57Bl/6J background (The Jackson Laboratory, strain 000664). All animal experiments were conducted in accordance with procedures approved by the IACUC at Cold Spring Harbor Laboratory. Mice were enrolled onto experimental studies between 6 and 8 weeks of age. Mice were administered Doxycycline through drinking water (0.5-2 mg/ml) supplemented with 10 mg/ml Sucrose for study durations up to one week. Doxycycline was administered through chow for experimental studies longer than one week, which is designed to deliver 2-3 mg of doxycycline per day based on the consumption of 4-5 g/day per mouse (Harlan Teklad, dietTD.01306, Doxycycline 625 mg). EdU (300 μg, Santa Cruz) was intraperitoneally administered bi-daily for three consecutive days. Cerulein was administered in 8 hourly doses of 200 μl (10 μg/ml) intraperitoneally for 48 hours and C57Bl/6J mice were allowed to recover for 24 or 72 hours. Blood glucose levels were measured using the ACCU-CHECK Nano (Roche) on the 414 lateral saphenous vein.\nSpleens and lymph nodes were mechanically dissociated, homogenized, and passed through a nylon cell strainer (BD Falcon) in FACS buffer (eBioscience). Pancreas were mechanically dissociated and digested with 0.4 mg/mL liberase, 0.05 mg/mL collagenase D, and 0.1 mg/mL DNase I (Roche) in DMEM (Gibco) supplemented with 10% FCS at 37° C. for 30 min and suspensions were passed through a nylon cell strainer.\nStaining was performed by incubating cells on a plate shaker, for 15 min at 4° C., with antibodies in FACS buffer (eBioscience). Multicolor flow cytometric analyses were performed using a LSR Fortessa cytometer (BD Biosciences). Gating strategies for all flow cytometric experiments are further described below."}, "[2]": {"system": "C^PDX;R^LSL;F mice", "experiment": "CA19-9 mediated pancreatitis in Dox-treated C^PDX;R^LSL;F mice (H&E, serum amylase and lipase, pEGFR IHC)", "format": "in vivo, mouse", "method": "All animal experiments were conducted in accordance with procedures approved by the IACUC at Cold Spring Harbor Laboratory. Mice were enrolled onto experimental studies between 6 and 8 weeks of age. Mice were administered Doxycycline through drinking water (0.5-2 mg/ml) supplemented with 10 mg/ml Sucrose for study durations up to one week. […] EdU (300 μg, Santa Cruz) was intraperitoneally administered bi-daily for three consecutive days. Cerulein was administered in 8 hourly doses of 200 μl (10 μg/ml) intraperitoneally for 48 hours and C57Bl/6J mice were allowed to recover for 24 or 72 hours.\nFormalin-fixed, paraffin-embedded blocks were sectioned and de-paraffinized. Antigen retrieval was performed in Citrate buffer for 6 minutes in a pressure cooker unless otherwise specified. […] The slides were then rinsed in tap water and transferred to the Cadenza system. Slides were blocked in 3% BSA in TBST for one hour at room temperature and incubated in primary antibody overnight. Slides were washed three times in TBST, then incubated in horse radish peroxidase-conjugated secondary antibody for one hour at room temperature. The slides were washed three times in TBST and disassembled from the Cadenza system. ImmPACT DAB (Vector) was incubated for 1-10 minutes followed by a water wash and incubation in Hematoxylin counterstain. The slides were then dehydrated and coverslipped in cytoseal 60.\nSlides were scanned using an Aperio CS2 scanner (Leica) and the total occupied pixel area was calculated in Imagescope (Leica). Affected pancreatitis areas on H&E stained slides were manually annotated and the uninvolved and affected areas were measured. Pancreatitis areas were defined by the presence of infiltrating lymphocytes, acinar intralobular swelling, acinar to ductal metaplasia, fibrosis and fat cell replacement. The number of Ki67-positive nuclei were counted manually in five representative high-powered fields from least four animals per group.\nAmylase and Lipase levels in plasma (lithium heparin, BD biosciences) was measured by IDEXX Pathology services. CA19-9 levels were measured using the human cancer biomarker assay (EMD Millipore) on the MagPIX multiplex ELISA platform (Luminex). Blood glucose levels were measured using an Accu-Chek Nano monitor (Roche) on the lateral saphenous vein. […] The CA19-9 coated plates were washed in 0.05% Tween 20 in PBS and blocked in 1% BSA in wash buffer before incubation 10 μl of mouse plasma in a final volume of 100 μl of blocking buffer"}, "[3]": {"system": "C57Bl/6J mice", "format": "in vivo", "conditions": "Sucrose or Dox Sucrose, Vehicle or Erlotinib", "method": "as §1, with “EdU (300 μg, Santa Cruz) was intraperitoneally administered bi-daily for three consecutive days. Cerulein was administered in 8 hourly doses of 200 μl (10 μg/ml) intraperitoneally for 48 hours and C57Bl/6J mice were allowed to recover for 24 or 72 hours.” left out\nAmylase and Lipase levels in plasma (lithium heparin, BD biosciences) was measured by IDEXX Pathology services. CA19-9 levels were measured using the human cancer biomarker assay (EMD Millipore) on the MagPIX multiplex ELISA platform (Luminex). Blood glucose levels were measured using an Accu-Chek Nano monitor (Roche) on the lateral saphenous vein. […]"}},
  "data": [
    {"compound": "Cerulein", "values": [
      {"measurement": "immune cell type representation in the spleen or lymph nodes", "setting": "[1]", "result": "without change"},
      {"measurement": "immune cells in the pancreas following induction of pancreatitis", "setting": "[1]", "result": "influx of inflammatory monocytes and macrophages"},
      {"measurement": "immune cell type representation in the spleen or lymph nodes", "setting": "[1]; listed as cerulein", "result": "without any change"},
      {"measurement": "immune cells in the pancreas following induction of pancreatitis", "setting": "[1]; listed as cerulein", "result": "treatment-dependent influx of inflammatory monocytes and macrophages"},
      {"measurement": "recruitment of T- or B-cells", "setting": "[1]; time points examined 1-3 days", "result": "Neither model exhibited recruitment"}
    ]},
    {"compound": "C#Cc1cccc(Nc2ncnc3cc(OCCOC)c(OCCOC)cc23)c1", "note": "[Erlotinib]", "values": [
      {"measurement": "ability to substitute for anti-CA19-9 therapy", "setting": "[2]; Erlotinib 24 hours prior to the induction of pancreatitis", "result": "unable to substitute"},
      {"measurement": "weight loss", "setting": "[2]; Erlotinib 24 hours prior to the induction of pancreatitis, humane end point prior to study completion", "result": "more than 20%"},
      {"measurement": "pancreatic atrophy at necropsy", "setting": "[2]; Erlotinib plus Dox", "result": "evident"},
      {"measurement": "vacuolization of the acinar compartment by histology", "setting": "[2]; Erlotinib plus Dox", "result": "apparent"},
      {"measurement": "relation of the effects to Erlotinib toxicity in normal mice", "setting": "[3]", "result": "unrelated to toxicity"}
    ]}
  ]
}
